In brackets after ≈: the same amount, converted by molar mass. Activity calls are given as the source filed them. The calls are words filed in the database; no cut-off is given here.
How the values were obtained:
[1] = Protein binding in plasma by dialysis method; format: ADME, cell-free; conditions: read-out: PPB (converted)
[2] = molecular target: T1, 5-hydroxytryptamine receptor 2B (Homo sapiens, UniProt P41595); test: Antagonist activity at 5-HT2B receptor expressed in CHOK1 cells assessed as inhibition of serotonin-induced intracellular Ca2+ flux by aequorin luminescence assay in presence of 4% human serum albumin; format: functional, cell-based, CHO-K1
[3] = molecular target: T1, 5-hydroxytryptamine receptor 2B; test: Antagonist activity at 5-HT2B receptor expressed in CHOK1 cells assessed as inhibition of serotonin-induced intracellular Ca2+ flux by aequorin luminescence assay; format: functional, cell-based, CHO-K1
[4] = AUC in Sprague-Dawley rat at 10 mg/kg, po; format: ADME, organism-based; parameters: dose 10 mg/kg, route oral; conditions: plasma
[5] = Oral bioavailability in Sprague-Dawley rat; format: ADME, organism-based; conditions: in vivo
[6] = Cmax in Sprague-Dawley rat 10 mg/kg, po; format: ADME, organism-based; parameters: dose 10 mg/kg, route oral; conditions: in vivo
[7] = Selectivity for 5-HT2B receptor over 5-HT2C receptor
[8] = Oral bioavailability in Wistar rat; format: ADME, organism-based; conditions: in vivo
[9] = AUC in Wistar rat at 10 mg/kg, po; format: ADME, organism-based; parameters: dose 10 mg/kg, route oral; conditions: plasma
[10] = Cmax in Wistar rat 10 mg/kg, po; format: ADME, organism-based; parameters: dose 10 mg/kg, route oral; conditions: in vivo
[11] = tested on: Rattus norvegicus; test: Hepatic blood flow in Wistar rat at 1 mg/kg, iv; format: ADME, organism-based, Liver; parameters: dose 1 mg/kg, route intravenous; conditions: in vivo
[12] = Selectivity for 5-HT2B receptor over 5-HT2A receptor
[13] = molecular target: 5-hydroxytryptamine receptor 2A (Homo sapiens) (UniProt P28223); test: Antagonist activity at 5-HT2A receptor up to 10 uM by FLIPR assay; format: functional
[14] = molecular target: T2, 5-hydroxytryptamine receptor 2C (Homo sapiens) (UniProt P28335); test: Antagonist activity at 5-HT2C receptor up to 10 uM by FLIPR assay; format: functional
T2 sequence (whole entry): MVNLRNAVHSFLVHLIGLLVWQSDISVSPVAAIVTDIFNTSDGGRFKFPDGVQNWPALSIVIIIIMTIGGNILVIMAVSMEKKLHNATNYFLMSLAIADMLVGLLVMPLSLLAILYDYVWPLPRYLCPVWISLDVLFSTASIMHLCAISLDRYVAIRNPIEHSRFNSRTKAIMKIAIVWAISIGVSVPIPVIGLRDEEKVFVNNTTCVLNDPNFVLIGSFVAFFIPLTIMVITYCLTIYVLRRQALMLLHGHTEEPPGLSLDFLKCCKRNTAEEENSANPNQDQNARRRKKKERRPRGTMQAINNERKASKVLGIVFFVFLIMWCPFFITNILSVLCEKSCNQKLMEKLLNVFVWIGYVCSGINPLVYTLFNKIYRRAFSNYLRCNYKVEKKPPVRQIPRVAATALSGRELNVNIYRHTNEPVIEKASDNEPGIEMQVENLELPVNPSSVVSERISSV

[15] = Inhibition of dopamine D4.2 receptor at 10 uM
[16] = Aqueous solubility of compound at pH 7.4; format: physicochemical; conditions: aqueous medium

T1 sequence (P41595 whole entry): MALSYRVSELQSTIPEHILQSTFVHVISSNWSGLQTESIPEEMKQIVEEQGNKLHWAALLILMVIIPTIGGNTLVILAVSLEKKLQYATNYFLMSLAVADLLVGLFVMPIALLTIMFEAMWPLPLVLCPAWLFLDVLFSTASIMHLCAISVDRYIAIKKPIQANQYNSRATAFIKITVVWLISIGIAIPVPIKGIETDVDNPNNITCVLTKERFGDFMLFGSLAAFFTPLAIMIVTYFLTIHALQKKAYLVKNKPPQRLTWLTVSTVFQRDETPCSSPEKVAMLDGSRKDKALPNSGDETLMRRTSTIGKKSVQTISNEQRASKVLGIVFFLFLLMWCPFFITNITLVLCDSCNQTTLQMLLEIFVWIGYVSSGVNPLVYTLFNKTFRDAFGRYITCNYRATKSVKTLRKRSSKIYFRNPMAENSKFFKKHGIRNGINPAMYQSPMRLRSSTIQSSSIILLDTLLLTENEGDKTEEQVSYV
5-hydroxytryptamine receptor 2A (Homo sapiens), sequence (P28223 whole entry): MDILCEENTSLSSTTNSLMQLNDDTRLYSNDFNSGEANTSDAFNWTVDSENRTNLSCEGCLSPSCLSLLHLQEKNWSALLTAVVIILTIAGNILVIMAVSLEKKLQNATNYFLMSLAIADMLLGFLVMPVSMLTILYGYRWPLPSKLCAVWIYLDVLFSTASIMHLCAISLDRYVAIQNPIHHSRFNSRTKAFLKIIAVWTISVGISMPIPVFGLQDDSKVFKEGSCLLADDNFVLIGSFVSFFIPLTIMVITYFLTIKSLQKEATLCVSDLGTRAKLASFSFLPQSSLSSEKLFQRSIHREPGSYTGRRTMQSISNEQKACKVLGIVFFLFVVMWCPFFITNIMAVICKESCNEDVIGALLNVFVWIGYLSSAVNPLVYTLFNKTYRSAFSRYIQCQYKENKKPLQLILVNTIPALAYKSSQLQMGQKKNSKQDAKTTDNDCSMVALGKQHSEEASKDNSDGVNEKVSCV

SMILES	IC50 [2] [nM]	IC50 [3] [nM]	further results
O=C(c1ccc(-c2ccccc2)cc1)N1CCC(c2ncc[nH]2)CC1			fraction unbound [1]: 0.001
O=C(c1ccc(N2CCCCC2)cc1)N1CCC(c2nc3ccccc3[nH]2)CC1	12000	48	
O=C(c1ccc(Br)cc1)N1CCC(c2nc3ccccc3[nH]2)CC1	> 26000	> 13000	
O=C(c1ccccc1)N1CCC(c2nc3ccccc3[nH]2)CC1	> 10000	> 10000	
O=C(c1ccc(-c2ccc(F)cc2)cc1)N1CCC(Cc2ncc[nH]2)CC1			AUC [4]: 6500 ng·h/mL; bioavailability [5]: 118%; Cmax [6]: 600 ng/mL
O=C(c1ccc(-c2ccncc2)cc1)N1CCC(c2nc3ccccc3[nH]2)CC1	> 13000	> 1300	
O=C(c1ccc(N2CCOCC2)cc1)N1CCC(c2nc3ccccc3[nH]2)CC1	> 26000	2300	
O=C(c1ccc(-c2ccccc2)cc1)N1CCN(c2nc3ccccc3[nH]2)CC1	> 25000	6900	
Cn1c(C2CCN(C(=O)c3ccc(-c4ccccc4)cc3)CC2)nc2ccccc21	10000	80	
NC(=O)c1ccc(-c2ccc(C(=O)N3CCC(c4nc5ccccc5[nH]4)CC3)cc2)cc1	> 24000	> 2400	
O=C(c1ccc(-c2cccnc2)cc1)N1CCC(c2nc3ccccc3[nH]2)CC1	> 14000	340	
O=C(c1ccc(-c2ncccn2)cc1)N1CCC(c2nc3ccccc3[nH]2)CC1	> 2700	120	
O=C(c1ccc(-c2ccccc2)cc1)N1CCC(c2nc3ccccc3o2)CC1	> 20000	1500	
O=C(c1ccc(-c2ccccc2)cn1)N1CCC(c2nc3ccccc3[nH]2)CC1	> 2400	12	
O=C(c1ccc(C2CCCCC2)cc1)N1CCC(c2nc3ccccc3[nH]2)CC1	1100	31	
O=C(c1ccc(-c2ccccc2)cc1)N1CC(c2nc3ccccc3[nH]2)C1	> 2800	150	
Cc1cc2c(cc1Cl)N(C(=O)Nc1cccc3ncccc13)CC2	64	13	Selectivity ratio [7]: 0.5; Selectivity ratio [12]: 7
NC(=O)C1CCN(C(=O)c2ccc(-c3ccccc3)cc2)CC1		> 6500	
c1ccc(-c2ccc(CN3CCC(c4nc5ccccc5[nH]4)CC3)cc2)cc1	7300	65	
O=S(=O)(c1ccc(-c2ccccc2)cc1)N1CCC(Cc2nc3ccccc3[nH]2)CC1	> 23000	1100	
O=C(c1ccc(-c2ccc(F)cc2)cc1)N1CCC(c2ncc[nH]2)CC1			AUC [4]: 14000 ng·h/mL; bioavailability [5]: 100%; Cmax [6]: 1700 ng/mL
O=C(c1ccc(-c2ccc(OC(F)(F)F)cc2)cc1)N1CCC(c2nc3ccccc3[nH]2)CC1	16000	95	
O=C(c1ccc(-c2ccccc2)[nH]c1=O)N1CCC(c2nc3ccccc3[nH]2)CC1	> 3000	22	
O=C(C1CCC(c2ccccc2)CC1)N1CCC(c2nc3ccccc3[nH]2)CC1 (centres undefined)	> 20000	610	

More lines, main results first:

IC50 [2] [nM]	IC50 [3] [nM]	SMILES	further results
14	0.4	O=C(c1ccc(-c2ccccc2)cc1)N1CCC(Cc2ncc[nH]2)CC1	
910	6	CCOc1nc(-c2ccccc2)ncc1C(=O)N1CCC(c2nc3ccccc3[nH]2)CC1	
840	1.9	O=S(=O)(c1ccc(-c2ccccc2)cc1)N1CCC(c2nc3ccccc3[nH]2)CC1	
3200	3.4	COc1ccc(-c2ccc(C(=O)N3CCC(c4nc5ccccc5[nH]4)CC3)cc2)cc1	
30	0.6	O=S(=O)(c1ccc(-c2ccc(F)cc2)cc1)N1CCC(c2ncc[nH]2)CC1	AUC [4]: 2300 ng·h/mL; bioavailability [5]: 54%; Cmax [6]: 870 ng/mL
710	2.5	O=C(c1cnc(-c2ccccc2)nc1)N1CCC(c2nc3ccccc3[nH]2)CC1	fraction unbound [1]: 0.009
270	3.5	N#Cc1cc(CN2CCC(Nc3ncnc4sc(Cl)cc34)CC2)ccc1F [PRX-08066 FREE BASE]	fraction unbound [1]: 0.01; Selectivity ratio [7]: > 3000; bioavailability [8]: 17%; AUC [9]: 500 ng·h/mL; Cmax [10]: 240 ng/mL; QH [11]: 82%; Selectivity ratio [12]: > 3000
19	0.7	CC(C)c1cc(-c2ccc(F)c3ccccc23)nc(N)n1	fraction unbound [1]: 0.001; Selectivity ratio [7]: 92; bioavailability [8]: 10%; AUC [9]: 810 ng·h/mL; Cmax [10]: 470 ng/mL; QH [11]: 29%; Selectivity ratio [12]: 2000
32	0.3	O=S(=O)(c1ccc(-c2ccccc2)cc1)N1CCC(c2ncc[nH]2)CC1	
300	2.3	O=C(c1ccc(-c2ccccc2)cc1)N1CCC(Cc2nc3ccccc3[nH]2)CC1	
990	6.5	O=S(=O)(c1ccc(-c2ccccc2)cc1)N1CCC(Cc2ncc[nH]2)CC1	
1200	4	COc1cc(-c2ccccc2)ccc1C(=O)N1CCC(c2nc3ccccc3[nH]2)CC1	
1200	2.4	O=C(c1ccc(-c2ccccc2)cc1)N1CCC(c2nc3ccccc3[nH]2)CC1	fraction unbound [1]: 0.001; Selectivity ratio [7]: > 10000; Activity [13]: inactive; Activity [14]: inactive; AUC [4]: 25000 ng·h/mL; inhibition [15]: 99%; bioavailability [5]: 130%; solubility [16]: 3 µg/mL (≈ 7.86 µM); Cmax [6]: 5000 ng/mL; Selectivity ratio [12]: > 10000
